Results reported in patent publication US20070244202A1, “Ampk Activator” (KAO CORPORATION, priority 2004, published 2007).

Assays:
[1] = test system: AMPK (AMP-activated protein kinase); test: AMPK activation evaluated by phosphorylation of AMPK α and β (Western blot) in mouse hepatocyte line Hepa 1-6; assay type: cell-based; conditions: Hepa 1-6 cells
Description: The AMPK activation effect of resveratrol was evaluated on the basis of phosphorylation of AMPK α and β through the below-described method by use of a mouse hepatocyte line (Hepa 1-6). Mouse hepatocyte cells (Hepa 1-6) were seeded in a 25-cm^2 flask, and cultured in DMEM (+10% FBS, +antibacterial agent) at 37° C. for one to two days. The culture medium was removed when the cells became subconfluent, and the cells were washed with PBS (−), followed by replacement with DMEM (−FBS) and further culturing for one day. After the culture medium was removed, DMEM (−FBS) containing a predetermined amount of resveratrol was added, followed by culturing for 60 minutes. Thereafter, the culture medium was removed, and the cells were washed with PBS (−), followed by addition of 200 μL of a cytolytic solution (10 mmol/L Tris (pH 7.4), 50 mmol/L sodium chloride, 30 mmol/L sodium pyrophosphate, 0.5 mass % Triton X-100, protease inhibitor cocktail (SIGMA P2714), phosphatase inhibitor cocktail-2 (SIGMA P5726)). The resultant cell lysate was collected with a cell scraper. The thus-collected cell lysate was thoroughly homogenized by passing it through a syringe using a 23-G needle (3 times), and then the cell lysate was allowed to stand on ice for 30 minutes. […] After the concentration of the supernatant protein was measured, the protein concentration was regulated to a constant level between samples. […] Thereafter, phospho-AMPK was detected by use of anti-phospho-AMPKα (Thr72) antibody (product of Cell Signaling) or anti-phospho-AMPKβ (Ser108) antibody (product of Cell Signaling) serving as a primary antibody, anti-rabbit-HRP antibody (product of Amersham) serving as a secondary antibody, and phototope-HRP Western Detection System (product of Cell Signaling) serving as a detection reagent. The intensity of the thus-detected band was converted into numerical data (pixels) through image analysis (EDAS 290 image analysis system: KODAK), and the degree of AMPK activation was calculated relative to the control (i.e., group containing no sample), which was taken as 100. […]

[2] = test system: AMPK (AMP-activated protein kinase); test: AMPK activation evaluated by phosphorylation of AMPK α and β (Western blot) in mouse muscle cell line C2C12; assay type: cell-based
Description: The AMPK activation effect of resveratrol was evaluated on the basis of phosphorylation of AMPK α and β through the below-described method by use of a mouse muscle cell line (C2C12). Mouse muscle cells (C2C12) were seeded in a 25-cm^2 flask, and cultured in DMEM (+10% FBS, +antibacterial agent) at 37° C. for one to two days. The culture medium was removed when the cells reached confluent, and the cells were washed with PBS (−), followed by replacement with DMEM (2 mass % Horse serum) and further culturing for seven to eight days while the culture medium was exchanged every two or three days. Thereafter, the culture medium was removed, and the cells were washed with PBS (−), followed by replacement with DMEM (−FBS) and further culturing for one day. After the culture medium was removed, DMEM (−FBS) containing a predetermined amount of resveratrol was added, followed by culturing for 60 minutes. […] After the concentration of the supernatant protein was measured, the protein concentration was regulated to a constant level between samples. […] Thereafter, phospho-AMPK was detected by use of anti-phospho-AMPKα (Thr72) antibody (product of Cell Signaling) or anti-phospho-AMPKβ (Ser108) antibody (product of Cell Signaling) serving as a primary antibody, anti-rabbit-HRP antibody (product of Amersham) serving as a secondary antibody, and phototope-HRP Western Detection System (product of Cell Signaling) serving as a detection reagent. The intensity of the thus-detected band was converted into numerical data (pixels) through image analysis (EDAS 290 image analysis system: KODAK), and the degree of AMPK activation was calculated relative to the control (i.e., group containing no sample), which was taken as 100. […]

[3] = test system: C57BL/6 male mice; test: Efficacy of resveratrol in mice fed a high-fat diet for 24 weeks (body, fat and liver weight, blood analysis); assay type: in vivo, mouse
Description: Seven-week-old C57BL/6 male mice (CLEA Japan, Inc.) were employed, and the animals were divided into three groups, each containing 10 to 15 animals. Twenty-four weeks after initiation of the test, body weight was measured, and blood was collected under anesthesia and non-fasting conditions for measurement of plasma glucose, cholesterol, insulin, and leptin. In addition, visceral fat weight (epididymal fat, retroperitoneal fat, and perirenal fat) and liver weight were measured. In Example 3, resveratrol manufactured by Cayman was employed. [table]

[4] = test system: lipid metabolism activity (β-oxidation activity); test: Lipid metabolism activating effect: lipid degradation (β-oxidation) activity of liver and skeletal muscle after oral administration; assay type: in vivo, mouse
Description: Seven-week-old Balb/c male mice were divided into two groups, and saline (control) or resveratrol (200 mg/kg body weight) was orally administered for 10 consecutive days. Thereafter, the liver and skeletal muscle (gastrocnemius muscle+soleus muscle) were collected from each of the animals. Each of the thus-collected liver and skeletal muscle was homogenized in buffer (250 mM sucrose, 1 mM EDTA in 10 mM HEPES (pH 7.2)), and insoluble tissue residues were centrifugally separated, whereby a supernatant was obtained. The thus-obtained supernatant was subjected to measurement of protein content, and the protein content was regulated to a constant level between samples. Each of the resultant samples was employed for measurement of lipid metabolism activity (β-oxidation activity). The supernatant protein (100 μg) was reacted with 0.1 μCi [^14C]-palmitic acid at 37° C. for 20 minutes in 200 μL (final volume) of buffer (50 mM Tris-HCl (pH 8.0), 40 mM NaCl, 2 mM KCl, 2 mM MgCl2, 1 mM DTT, 5 mM ATP, 0.2 mM L-carnitine, 0.2 mM NAD, 0.06 mM FAD, 0.12 mM CoA, 3 mM α-cyclodextrin). The reaction was stopped with 200 μL of 0.6 N perchloric acid, and then unreacted [^14C]-palmitic acid was removed three times with hexane (1 mL). Lipid degradation activity was evaluated through measurement of the radioactivity of the aqueous layer.
Lipid degradation activity was calculated relative to that of the control, which was taken as 100. […] As is clear from the test results, resveratrol is effective for activation of lipid metabolism.

[5] = 0.2% resveratrol in high-fat diet vs high-fat diet, P<0.01
[6] = 0.2% resveratrol in high-fat diet vs high-fat diet, P<0.05

## Oc1ccc(/C=C/c2cc(O)cc(O)c2)cc1 [Resveratrol, 3,4′,5-trihydroxy-trans-stilbene]
[1]; resveratrol 150 μmol/L, 60 minutes, anti-phospho-AMPKα (Thr72) antibody, control = 100
  Phospho-AMPKα (degree of AMPK activation relative to control taken as 100): 538
[1]; resveratrol 150 μmol/L, 60 minutes, anti-phospho-AMPKβ (Ser108) antibody, control = 100
  Phospho-AMPKβ (degree of AMPK activation relative to control taken as 100): 168
[1]; summary of Table 1
  AMPK activation effect (in words): potent AMPK activation effect
[2]; C2C12 cells, resveratrol 150 μmol/L, 60 minutes, anti-phospho-AMPKα (Thr72) antibody, control = 100
  Phospho-AMPKα (degree of AMPK activation relative to control taken as 100): 848
[2]; C2C12 cells, resveratrol 150 μmol/L, 60 minutes, anti-phospho-AMPKβ (Ser108) antibody, control = 100
  Phospho-AMPKβ (degree of AMPK activation relative to control taken as 100): 425
[2]; summary of Table 2
  AMPK activation effect in muscle cells (in words): potent AMPK activation effect
[3]; 0.2% resveratrol in high-fat diet vs high-fat diet
  Blood insulin level, group 3 compared with group 2 (in words): lower than that in group 2
[3]; 0.2% resveratrol in high-fat diet vs high-fat diet, P<0.001
  Body weight, group 3 compared with group 2 (in words): significantly lower than that in group 2
[3]; [5]
  Blood leptin level, group 3 compared with group 2 (in words): significantly lower than that in group 2
  Visceral fat weight, group 3 compared with group 2 (in words): significantly lower than that in group 2
[3]; [6]
  Liver weight, group 3 compared with group 2 (in words): significantly lower than that in group 2
  Total cholesterol level, group 3 compared with group 2 (in words): significantly lower than that in group 2
[3]; 0.2% resveratrol in high-fat diet vs high-fat diet, P<0.1
  Blood glucose level, group 3 compared with group 2 (in words): lower than that in group 2
[3]; Group 3: high-fat diet with 0.2% resveratrol, epididymal, retroperitoneal and perirenal fat, group 1 0.88, group 2 2.17
  Visceral fat weight: 1.00 g
[3]; Group 3: high-fat diet with 0.2% resveratrol, group 1 1.34, group 2 1.62
  Liver weight: 1.39 g
[3]; Group 3: high-fat diet with 0.2% resveratrol, group 1 (low-fat) 32.2, group 2 (high-fat) 38.8
  Body weight: 32.1 g
[3]; Group 3: high-fat diet with 0.2% resveratrol, plasma, non-fasting, group 1 1.43, group 2 6.19
  Leptin: 1.79 ng/mL
[3]; Group 3: high-fat diet with 0.2% resveratrol, plasma, non-fasting, group 1 2.52, group 2 3.38
  Insulin: 2.03 ng/mL
[3]; Group 3: high-fat diet with 0.2% resveratrol, plasma, non-fasting, group 1 58, group 2 76
  Total cholesterol: 60 mg/dL
[3]; Group 3: high-fat diet with 0.2% resveratrol, plasma, non-fasting, group 1 133, group 2 191
  Glucose: 162 mg/dL
[4]; Balb/c male mice, resveratrol 200 mg/kg body weight orally for 10 consecutive days, gastrocnemius + soleus muscle homogenate, [14C]-palmitic acid, control = 100
  Lipid degradation activity (β-oxidation activity) of skeletal muscle relative to control taken as 100: 243
[4]; Balb/c male mice, resveratrol 200 mg/kg body weight orally for 10 consecutive days, liver homogenate, [14C]-palmitic acid, control = 100
  Lipid degradation activity (β-oxidation activity) of liver relative to control taken as 100: 323
[4]; resveratrol 200 mg/kg orally for 10 days vs saline control, liver p<0.001, muscle p<0.001
  Lipid degradation activity (β-oxidation activity) of the liver and skeletal muscle (in words): considerably increases
